Reference: patent US20170029355A1, “LABILE ESTERS OF AGROCHEMICALS FOR CONTROLLED RELEASE AND REDUCTION OF OFF-SITE MOVEMENT” (Monsanto Technology LLC, priority 2011, published 2017)

Assays:
hemp sesbania [1] = assay: Field testing of emulsifiable concentrates, post-emergent control (Example 38); format: in vivo; settings: 11 or 21 days after treatment
Source text: (§1) Four dicamba esters, 1a, 2, 9, and 13a, were formulated as emulsifiable concentrates for field testing. All formulations contained 5% each of a alkylbenzene sulfonate calcium salt (Huntsman NANSA EVM 62/H or Akzo Nobel WITCONATE P-1220 EH) and castor oil ethoxylate (Huntsman SURFONIC CO-54) as the emulsifiers and Aromatic 200 (Exxon) or monochlorobenzene (MCB) as the solvent.
(§2) The esters were compared to the diglycolamine salt of dicamba (CLARITY™) for post-emergent control of three broadleaf weeds: velvetleaf, morning glory, and hemp sesbania. Rates of 280 and 420 g dicamba acid equivalent per hectare were used. […] Evaluations were conducted at 11 or 21 days after treatment. Locations and timing were identical for all formulations tested.

morning glory [2] = assay: as above; format: in vivo; settings: 11 or 21 days after treatment
Source text: as §1, §2

velvetleaf [3] = assay: as above; format: in vivo; settings: 11 or 21 days after treatment
Source text: as §1, §2

soybeans = assay: Humidome volatility injury, ester 32a emulsifiable concentrate (Example 32); settings: in vivo
Source text: […] The mixtures were sprayed at a 10 gallon per acre (93.5 liters per hectare) rate on soil in a plastic container (“humidome”) with a transparent lid. One soil container was sprayed with water as a control. Four glyphosate-tolerant, dicamba-sensitive soy plants between V2 and V3 stage were immediately placed on the sprayed soil and the domes attached to the trays with binder clips. The soy plants were in pots placed directly on the soil but with aluminum foil wrapped around the bottom to prevent uptake of dicamba or dicamba esters through the roots.
The closed containers were held for 24 hours in a growth chamber which was maintained at 35° C. with 40% relative humidity. […] At this time plant injury and growth stage were assessed compared to the control treated with water only.

[4] = test system: glyphosate-tolerant, dicamba-sensitive soy plants; assay: Humidome volatility injury to dicamba-sensitive plants (Example 31); settings: in vivo
Source text: In this case, the diglycolamine salt of dicamba (CLARITY®) was used for comparison.
Dicamba photo-labile ester formulations from Example 28 were mixed with a commercial glyphosate formulation (ROUNDUP POWERMAX®) and diluted to provide a solution with a 0.5% dicamba equivalent concentrate of the ester (or dicamba diglycolamine salt) and 1.5% concentrate of glyphosate. The mixtures were sprayed at a 10 gallon per acre (93.5 liters per hectare) rate on soil in a plastic container (“humidome”) with a transparent lid. One soil container was sprayed with water as a control. Four glyphosate-tolerant, dicamba-sensitive soy plants between V2 and V3 stage were immediately placed on the sprayed soil and the domes attached to the trays with binder clips. The soy plants were in pots placed directly on the soil but with aluminum foil wrapped around the bottom to prevent uptake of dicamba or dicamba esters through the roots.
The closed containers were held for 24 hours in a growth chamber which was maintained at 35° C. with 40% relative humidity. The plants were then removed and grown in a greenhouse for three weeks. At this time plant injury and growth stage were assessed compared to the control treated with water only.

[5] = Field dicamba volatility, airborne dicamba collected by air samplers (Example 34); format: physicochemical; settings: field plot, 0.5 lb/acre dicamba a.e. with ROUNDUP WEATHERMAX, airborne dicamba collected over 24 hours, maximum 86° F.
velvetleaf [6] = assay: Greenhouse post-emergent control of velvetleaf by emulsifiable concentrates (Example 30); format: in vivo
Method: (§3) The efficacy of some photo-labile ester formulations from Example 28 for post-emergent control of velvetleaf was tested in the greenhouse. All formulations were tested at rates of 140, 280, 420, and 560 g dicamba equivalent per hectare rates and compared to the diglycolamine salt of dicamba (CLARITY®) at the same rates and untreated control plants. The velvetleaf plants were 10-15 cm in height at the time of spraying. Percent control was evaluated three weeks after treatment.
The methodology of Example 29 was used to evaluate the efficacy of several photo-labile esters of dicamba for post-emergent control of velvetleaf as emulsifiable concentrate formulations described in Example 28.

velvetleaf [7] = assay: Greenhouse post-emergent control of velvetleaf by emulsifiable concentrates (Example 29); format: in vivo; settings: three weeks after treatment
Method: as §3

hemp sesbania [8] = assay: Field testing of emulsifiable concentrates, post-emergent control (Example 40); format: in vivo; settings: for % control 19 days after treatment, 280 g/ha, Hemp sesbania: 280 g dicamba acid equivalent per hectare; for % control 19 days after treatment, 560 g/ha, Hemp sesbania: 560 g dicamba acid equivalent per hectare
Method: (§4) Three dicamba esters, 30a, 32a, and 36a, were formulated as emulsifiable concentrates for field testing. All surfactants are commercial materials from Stepan.
(§5) The formulations were tested in the field. Locations and timing were identical for the three esters, but differed slightly for the diglycolamine control. The esters were compared to the diglycolamine salt of dicamba (CLARITY™) for post-emergent control of three broadleaf weeds: velvetleaf, morning glory, and hemp sesbania. Rates of 280 and 560 g dicamba acid equivalent per hectare were used.

morning glory [9] = assay: as above; format: in vivo; settings: for % control 19 days after treatment, 280 g/ha, Morning glory: 280 g dicamba acid equivalent per hectare; for % control 19 days after treatment, 560 g/ha, Morning glory: 560 g dicamba acid equivalent per hectare
Method: as §4, §5

velvetleaf [10] = assay: as above; format: in vivo; settings: for % control 19 days after treatment, 280 g/ha, Velvetleaf: 280 g dicamba acid equivalent per hectare; for % control 19 days after treatment, 560 g/ha, Velvetleaf: 560 g dicamba acid equivalent per hectare
Method: as §4, §5

Euphorbia species = assay: Field testing for post-emergent activity in the Southern Hemisphere (Example 39); format: in vivo; settings: 9 as suspension concentrate, other esters as emulsifiable concentrates
Method: The primary weeds were Euphorbia species. Ester 9 was tested as a suspension concentrate using the formulation of Example 33 The other esters were tested as emulsifiable concentrates having the formulations shown in the table below. Akzo Nobel SPONTO EC 334 and SPONTO EC 336 along with SURFONIC CO-54 and […] (Huntsman) were used as emulsifiers and Aromatic 200 (A 200; Exxon) was used as the solvent. […] The diglycolamine salt of dicamba (CLARITYTM) was used as a comparator.

velvetleaf [11] = assay: Greenhouse post-emergent control of velvetleaf by emulsifiable concentrates (Example 37); format: in vivo; settings: greenhouse, Example 37
In short: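 Photo-labile dicamba ester emulsifiable concentrates sprayed post-emergence in the greenhouse on velvetleaf 10-15 cm tall at 140, 280, 420 and 560 g dicamba equivalent per hectare. Percent control scored three weeks after treatment.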

[12] = In vitro photo-release and hydrolytic release of dicamba in an aqueous medium (Example 35); format: physicochemical; settings: 0.01 mM ester, 35° C.
Method: This Example describes the determination of photo-lability and hydrolytic lability of dicamba esters in an aqueous medium. 1 mM solutions of the esters were prepared in acetonitrile (or […] solutions of dicamba diesters). The solutions were then diluted with deionized water to a concentration of 0.01 mM (or 0.005 mM for diesters). The solutions were then transferred to quartz tubes and amber bottles and held in a growth chamber by the procedure of Example 26. A 14-hour day was generally used at a constant temperature of 35° C. Hydrolytic activity was assessed by measuring the increase in dicamba concentration after day zero in the amber (dark) bottles. […] Photolysis manifested itself as increased conversion in the quartz tubes compared to the dark control.

[13] = test system: three broadleaf weeds: velvetleaf, morning glory, and hemp sesbania; assay: Field testing of Example 40, overall post-emergent activity in words; format: in vivo; settings: 280 and 560 g dicamba acid equivalent per hectare
Method: as §4, §5

broadleaf weeds = assay: Control of broadleaf weeds by ester concentrates (statements of the description); format: in vivo; settings: emulsifiable and suspension concentrates; Sesbania macrocarpa, morning glory, velvetleaf, Palmer amaranth, fat hen, sicklepod
[14] = 280 g dicamba acid equivalent per hectare
[15] = 420 g dicamba acid equivalent per hectare

Structure (SMILES): COc1c(Cl)ccc(Cl)c1C(=O)O.NCCOCCO [Diglycolamine salt, diglycolamine salt of dicamba, reference compound]
- % control, 280 g/ha, Hemp sesbania (hemp sesbania [1]; [14]): 81%
- % control, 420 g/ha, Hemp sesbania (hemp sesbania [1]; [15]): 88%
- % control, 280 g/ha, Morning glory (morning glory [2]; [14]): 100%
- % control, 420 g/ha, Morning glory (morning glory [2]; [15]): 100%
- % control, 280 g/ha, Velvetleaf (velvetleaf [3]; [14]): 87%
- % control, 420 g/ha, Velvetleaf (velvetleaf [3]; [15]): 91%
- average injury to soybeans (soybeans): 60%
- Growth Stage [4]: 6
- average dicamba level from the five air samplers [5]: 11.1 ng/m^3
- % Control of velvetleaf, 140 g/ha (velvetleaf [6]; 140 g/ha): 54%
- % Control of velvetleaf, 280 g/ha (velvetleaf [6]; 280 g/ha): 86%
- % Control of velvetleaf, 420 g/ha (velvetleaf [6]; 420 g/ha): 96%
- % Control of velvetleaf, 560 g/ha (velvetleaf [6]; 560 g/ha): 96%
- % Control of velvetleaf, 140 g/ha (velvetleaf [7]; 140 g dicamba equivalent per hectare): 44%
- % Control of velvetleaf, 280 g/ha (velvetleaf [7]; 280 g dicamba equivalent per hectare): 63%
- % Control of velvetleaf, 420 g/ha (velvetleaf [7]; 420 g dicamba equivalent per hectare): 68%
- % Control of velvetleaf, 560 g/ha (velvetleaf [7]; 560 g dicamba equivalent per hectare): 83%
- % control 19 days after treatment, 280 g/ha, Hemp sesbania (hemp sesbania [8]): 89 ± 5%
- % control 19 days after treatment, 560 g/ha, Hemp sesbania (hemp sesbania [8]): 96 ± 2%
- % control 19 days after treatment, 280 g/ha, Morning glory (morning glory [9]): 89 ± 11%
- % control 19 days after treatment, 560 g/ha, Morning glory (morning glory [9]): 94 ± 12%
- % control 19 days after treatment, 280 g/ha, Velvetleaf (velvetleaf [10]): 78 ± 10%
- % control 19 days after treatment, 560 g/ha, Velvetleaf (velvetleaf [10]): 91 ± 7%
- % control, 0.25 lb/ac (0.28 kg/hectare) (Euphorbia species; 0.25 lb dicamba a.e. per acre): 53%
- % control, 0.50 lb/ac (0.56 kg/hectare) (Euphorbia species; 0.50 lb dicamba a.e. per acre): 70%
- % Control of velvetleaf, 140 g/ha (velvetleaf [11]; 140 g/ha): 43.3%
- % Control of velvetleaf, 280 g/ha (velvetleaf [11]; 280 g/ha): 65.8%
- % Control of velvetleaf, 420 g/ha (velvetleaf [11]; 420 g/ha): 87.5%
- % Control of velvetleaf, 560 g/ha (velvetleaf [11]; 560 g/ha): 90.0%

Structure (SMILES): COc1ccc(OC(=O)c2c(Cl)ccc(Cl)c2OC)cc1 [Ester 30a, 4-methoxyphenyl ester of dicamba]
- Conversion to Dicamba, Dark, Day 0 ([12]; amber (dark) bottle, Day 0): 6%
- Conversion to Dicamba, Dark, Day 3 ([12]; amber (dark) bottle, Day 3): 5%
- Conversion to Dicamba, Dark, Day 14 ([12]; amber (dark) bottle, Day 14): 17%
- Conversion to Dicamba, Dark, Day 21 ([12]; amber (dark) bottle, Day 21): 17%
- Conversion to Dicamba, Dark, Day 28 ([12]; amber (dark) bottle, Day 28): 19%
- Conversion to Dicamba, Light, Day 0 ([12]; quartz tube, 14-hour day, Day 0): 6%
- Conversion to Dicamba, Light, Day 3 ([12]; quartz tube, 14-hour day, Day 3): 14%
- Conversion to Dicamba, Light, Day 14 ([12]; quartz tube, 14-hour day, Day 14): 23%
- Conversion to Dicamba, Light, Day 21 ([12]; quartz tube, 14-hour day, Day 21): 29%
- Conversion to Dicamba, Light, Day 28 ([12]; quartz tube, 14-hour day, Day 28): 36%
- post-emergent activity compared with the dicamba salt, in words [13]: less efficacious
- control of a number of broadleaf weeds in field testing, in words (broadleaf weeds): proven effective
- % control 19 days after treatment, 280 g/ha, Hemp sesbania (hemp sesbania [8]): 50 ± 20%
- % control 19 days after treatment, 560 g/ha, Hemp sesbania (hemp sesbania [8]): 67 ± 13%
- % control 19 days after treatment, 280 g/ha, Morning glory (morning glory [9]): 79 ± 7%
- % control 19 days after treatment, 560 g/ha, Morning glory (morning glory [9]): 78 ± 10%
- % control 19 days after treatment, 280 g/ha, Velvetleaf (velvetleaf [10]): 56 ± 25%
- % control 19 days after treatment, 560 g/ha, Velvetleaf (velvetleaf [10]): 65 ± 25%
- pest or weed control at 140 g/ha (velvetleaf [11]; Abutilon theophrasti, post-emergence, 504 h, 140 g/ha, read-out: % Control of velvetleaf, 140 g/ha): 19.2%
- pest or weed control at 280 g/ha (velvetleaf [11]; Abutilon theophrasti, post-emergence, 504 h, 280 g/ha, read-out: % Control of velvetleaf, 280 g/ha): 12.5%
- pest or weed control at 420 g/ha (velvetleaf [11]; Abutilon theophrasti, post-emergence, 504 h, 420 g/ha, read-out: % Control of velvetleaf, 420 g/ha): 18.3%
- pest or weed control at 560 g/ha (velvetleaf [11]; Abutilon theophrasti, post-emergence, 504 h, 560 g/ha, read-out: % Control of velvetleaf, 560 g/ha): 15%
